Laboratory results taken from patent US9249114B2, “Thiazole derivatives” (Merck Patent GmbH, priority 2011, dated 2016).
pIC50: −log10 of the molar value.

What was measured:
[1] = target: TANK binding kinase (TBK1) (Homo sapiens (Human), UniProt Q9UHD2); experiment: TBK1 enzyme assay (384-well Flashplate kinase assay); format: biochemical; conditions: 10 μM ATP, 120 Min at 30° C.
Experimental: Test for the Inhibition of TBK1
The kinase assay is performed as 384-well Flashplate assay (for e.g. Topcount measurement. 0.6 nM TANK binding kinase (TBK1), 800 nM biotinylated MELK-derived peptide (Biotin-Ah-Ah-[…]) SEQ ID NO: 2 and 10 μM ATP (spiked with 0.25 μCi ^33P-ATP/well) are incubated in a total volume of 50 μl (10 mM MOPS, 10 mM Mg-acetat, 0.1 mM EGTA, 1 mM DTT, 0.02% Brij35, 0.1% BSA, pH 7.5) with or without test compound for 120 Min at 30° C. The reaction is stopped with 25 μl 200 mM EDTA. After 30 Min at room temperature the liquid is removed and each well washed thrice with 100 μl 0.9% sodium chloride solution. Nonspecific reaction is determined in presence of 100 nM Staurosporine. Radioactivity is measured in a Topcount (PerkinElmer). Results (e.g. IC50-values) are calculated with program tools provided by the IT-department (e.g. AssayExplorer, Symyx).

[2] = target: IKKε (Homo sapiens (Human), UniProt Q14164); experiment: IKKε kinase assay (384-well Flashplate); format: biochemical; conditions: 10 μM ATP, 2 hours at 30° C.; read-out: IKKε enzyme assay IC50
Experimental: Test for the Inhibition of IKKε
IKKε—Kinase Assay (IKKepsilon)
The kinase assay is performed either as 384-well Flashplate assay (for e.g. Topcount measurement). […] The reaction is stopped with 25 μl 200 mM EDTA. After 30 Min at room temperature the liquid is removed and each well washed thrice with 100 μl 0.9% sodium chloride solution. […] Radioactivity is measured with Topcount (PerkinElmer). Results (e.g. IC50-values) are calculated with program tools provided by the IT-department (e.g. AssayExplorer, Symyx).

[3] = system: phospho-IRF3 Ser 386; experiment: Cell test: dose response inhibition of phospho-IRF3 Ser 386 in MDA-MB-468 cells; format: cell-based; conditions: Homo sapiens, Poly(I:C) stimulation, read-out: IC50 of reference inhibitor in phospho-IRF3 cell assay
Source text: Cell Test Dose Response Inhibition of Phospho-IRF3 […] cell/MDAMB468/INH/PHOS/IMAG/pIRF3 1. Scope Although TBK1 and IKKε are best known as key players in the innate immune response, recent findings have pointed towards a role for TBK1 and IKKi in Ras-induced oncogenic transformation. TBK1 was identified as a RalB effector in the Ras-like (Ral)-guanine nucleotide exchange factor (GEF) pathway that is required for Ras-induced transformation. TBK1 directly activates IRF3 which, upon phosphorylation, homodimerizes and translocates to the nucleus where it activates processes involved with inflammation, immune regulation, cell survival and proliferation. This assay has been devised in order to assess the efficacy/potency of TBK1/IKKε inhibitor compounds based on the immunocytochemical detection of nuclear localised phospho-IRF3, a target directly downstream of TBK1. […] 2. Assay Overview Day 1: MDA-MB-468 cells are detached with HyQ-Tase, counted, and seeded into a 384-well clear bottom TC-surface plate at density of 10,000 cells per well in a total volume of 35 ul complete medium. Alternatively cells are directly seeded from frozen vials. […] Day 3: The primary antibody is washed off, an AlexaFluor488-conjugated secondary is added, cells are counterstained with propidium iodide followed by image acquisition on IMX Ultra high content reader. […]

Sequence of TANK binding kinase (TBK1) (Q9UHD2 whole entry): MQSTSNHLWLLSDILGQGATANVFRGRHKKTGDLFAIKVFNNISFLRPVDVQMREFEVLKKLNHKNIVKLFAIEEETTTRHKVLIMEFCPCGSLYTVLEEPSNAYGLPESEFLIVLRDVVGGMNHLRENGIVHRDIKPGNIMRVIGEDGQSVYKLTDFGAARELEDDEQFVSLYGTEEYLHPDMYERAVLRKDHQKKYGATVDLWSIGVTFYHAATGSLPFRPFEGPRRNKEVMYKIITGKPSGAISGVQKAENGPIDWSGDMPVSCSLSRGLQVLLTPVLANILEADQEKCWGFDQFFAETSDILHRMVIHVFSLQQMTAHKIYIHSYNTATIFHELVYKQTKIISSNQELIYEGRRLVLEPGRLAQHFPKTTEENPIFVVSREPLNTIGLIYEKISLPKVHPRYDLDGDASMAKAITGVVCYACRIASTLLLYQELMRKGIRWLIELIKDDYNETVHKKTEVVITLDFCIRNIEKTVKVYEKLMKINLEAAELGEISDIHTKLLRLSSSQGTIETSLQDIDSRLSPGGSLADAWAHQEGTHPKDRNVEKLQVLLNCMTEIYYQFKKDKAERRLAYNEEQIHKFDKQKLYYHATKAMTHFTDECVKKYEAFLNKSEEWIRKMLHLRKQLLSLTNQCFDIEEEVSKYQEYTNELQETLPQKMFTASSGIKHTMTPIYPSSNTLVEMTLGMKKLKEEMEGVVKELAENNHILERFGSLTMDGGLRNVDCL
Sequence of IKKε (Q14164 whole entry): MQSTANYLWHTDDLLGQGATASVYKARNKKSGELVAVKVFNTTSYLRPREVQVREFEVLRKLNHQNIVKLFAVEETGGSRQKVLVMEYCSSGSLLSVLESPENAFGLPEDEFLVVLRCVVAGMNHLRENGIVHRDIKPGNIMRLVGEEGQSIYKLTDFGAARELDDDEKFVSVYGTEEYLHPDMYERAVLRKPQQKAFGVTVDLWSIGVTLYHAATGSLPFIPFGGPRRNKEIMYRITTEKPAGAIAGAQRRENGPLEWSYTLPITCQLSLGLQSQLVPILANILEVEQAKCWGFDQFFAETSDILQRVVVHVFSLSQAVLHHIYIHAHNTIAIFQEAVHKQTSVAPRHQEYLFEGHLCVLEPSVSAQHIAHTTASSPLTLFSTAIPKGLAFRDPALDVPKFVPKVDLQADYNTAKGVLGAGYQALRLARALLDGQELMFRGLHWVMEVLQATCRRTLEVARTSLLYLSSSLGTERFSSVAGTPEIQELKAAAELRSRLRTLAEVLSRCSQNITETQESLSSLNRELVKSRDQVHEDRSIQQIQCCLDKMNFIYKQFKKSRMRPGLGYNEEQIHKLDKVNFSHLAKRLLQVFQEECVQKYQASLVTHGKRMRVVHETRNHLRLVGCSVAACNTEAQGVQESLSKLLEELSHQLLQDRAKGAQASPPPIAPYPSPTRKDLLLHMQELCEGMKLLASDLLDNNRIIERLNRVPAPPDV

Structure (SMILES): NC(=O)c1nc(-c2ccncc2)sc1NC(=O)c1ccc(CN2CCNCC2)cc1 [Compound A24, 5-(4-piperazin-1-ylmethyl-benzoylamino)-2-pyridin-4-yl-thiazole-4-carboxylic acid amide]
- pIC50 [1]: 7.02
- pIC50 [2]: 6.59

Structure (SMILES): NC(=O)c1nc(-c2ccncc2)sc1NC(=O)c1cn[nH]c1 [Compound A42, 5-[(1H-pyrazole-4-carbonyl)-amino]-2-pyridin-4-yl-thiazole-4-carboxylic acid amide]
- pIC50 [1]: 5.57
- pIC50 [2]: 6.14

Structure (SMILES): CN1CCC(Cc2ccc(C(=O)Nc3sc(-c4ccncc4)nc3C(N)=O)cc2)CC1 [Compound A26, 5-[4-(1-methyl-piperidin-4-ylmethyl)-benzoylamino]-2-pyridin-4-yl-thiazole-4-carboxylic acid amide]
- pIC50 [1]: 7.00
- pIC50 [2]: 7.51

Structure (SMILES): CN(C)Cc1ccc(C(=O)Nc2sc(-c3ccncc3)nc2C(N)=O)cc1 [Compound A40, 5-(4-dimethylaminomethyl-benzoylamino)-2-pyridin-4-yl-thiazole-4-carboxylic acid amide]
- pIC50 [1]: 5.90
- pIC50 [2]: 6.55

Structure (SMILES): NC(=O)c1nc(-c2ccncc2)sc1NC(=O)c1ccco1 [Compound A60, 5-(2-furoylamino)-2-pyridin-4-yl-1,3-thiazole-4-carboxamide]
- pIC50 [1]: 5.43
- pIC50 [2]: 5.20

Structure (SMILES): NC(=O)c1nc(-c2ccncc2)sc1NC(=O)c1ccc[nH]1 [Compound A61, 2-pyridin-4-yl-5-[(1H-pyrrol-2-ylcarbonyl)amino]-1,3-thiazole-4-carboxamide]
- pIC50 [1]: 6.92
- pIC50 [2]: 6.85

Structure (SMILES): NC(=O)c1nc(-c2ccncc2)sc1NC(=O)c1ccc(N)cc1 [Compound A58, 5-[(4-aminobenzoyl)amino]-2-pyridin-4-yl-1,3-thiazole-4-carboxamide]
- pIC50 [1]: 6.96
- pIC50 [2]: 6.74

Structure (SMILES): CC(=O)N1CCN(Cc2ccc(C(=O)Nc3sc(-c4ccncc4)nc3C(N)=O)cc2)CC1 [Compound A27, 5-[4-(4-acetyl-piperazin-1-ylmethyl)-benzoylamino]-2-pyridin-4-yl-thiazole-4-carboxylic acid amide]
- pIC50 [1]: 6.85
- pIC50 [2]: 7.00

Structure (SMILES): CN1CCN(Cc2ccc(C(=O)Nc3sc(-c4ccncc4F)nc3C(N)=O)cc2)CC1 [Compound A19, 2-(3-fluoro-pyridin-4-yl)-5-[4-(4-methyl-piperazin-1-ylmethyl)-benzoylamino]-thiazole-4-carboxylic acid amide]
- pIC50 [1]: 6.43
- pIC50 [2]: 6.55

Structure (SMILES): CN1CCN(Cc2ccc(Nc3sc(-c4ccncc4)nc3C(N)=O)cc2)CC1 [Compound A14, 5-[4-(4-methyl-piperazin-1-ylmethyl)-phenylamino]-2-pyridin-4-yl-thiazole-4-carboxylic acid amide]
- pIC50 [1]: 5.77
- pIC50 [2]: 6.38

Structure (SMILES): Cc1cc(-c2nc(C(N)=O)c(NC(=O)c3ccc(CN4CCN(C)CC4)cc3)s2)ccn1 [Compound A7, 5-[4-(4-methyl-piperazin-1-ylmethyl)-benzoylamino]-2-(2-methyl-pyridin-4-yl)-thiazole-4-carboxylic acid amide]
- pIC50 [1]: 6.39
- pIC50 [2]: 6.41

Structure (SMILES): CN1CCN(Cc2ccc(C(=O)Nc3sc(-c4ccncc4Cl)nc3C(N)=O)cc2)CC1 [Compound A20, 2-(3-chloro-pyridin-4-yl)-5-[4-(4-methyl-piperazin-1-ylmethyl)-benzoylamino]-thiazole-4-carboxylic acid amide]
- pIC50 [1]: 6.19
- pIC50 [2]: 6.20

Structure (SMILES): COc1cnccc1-c1nc(C(N)=O)c(NC(=O)c2ccc(CN3CCN(C)CC3)cc2)s1 [Compound A21, 2-(3-methoxy-pyridin-4-yl)-5-[4-(4-methyl-piperazin-1-ylmethyl)-benzoylamino]-thiazole-4-carboxylic acid amide]
- pIC50 [1]: 7.34
- pIC50 [2]: 7.85

Structure (SMILES): O=C(NCCCNc1nc(Nc2cccc(NC(=O)N3CCCC3)c2)ncc1I)c1cccs1 [BX-795]
- pIC50 [3]: 6.10 to 6.70

Structure (SMILES): NC(=O)c1nc(-c2ccncc2)sc1NC(=O)c1ccc(N2CCOCC2)nc1 [Compound A43, N-(4-carbamoyl-2-pyridin-4-yl-thiazol-5-yl)-6-morpholin-4-yl-nicotinamide]
- pIC50 [1]: 5.14
- pIC50 [2]: 5.70

Structure (SMILES): CN1CCN(Cc2ccc(C(=O)Nc3sc(-c4ccnc(F)c4)nc3C(N)=O)cc2)CC1 [Compound A6, 2-(2-fluoro-pyridin-4-yl)-5-[4-(4-methyl-piperazin-1-ylmethyl)-benzoylamino]-thiazole-4-carboxylic acid amide]
- pIC50 [1]: 6.20
- pIC50 [2]: 6.27

Structure (SMILES): NC(=O)c1nc(-c2ccncc2)sc1NC(=O)c1cc[nH]n1 [Compound A63, 5-[(1H-pyrazol-3-ylcarbonyl)amino]-2-pyridin-4-yl-1,3-thiazole-4-carboxamide]
- pIC50 [1]: 5.57
- pIC50 [2]: 5.14

Structure (SMILES): Cc1cnccc1-c1nc(C(N)=O)c(NC(=O)c2ccc(CN3CCN(C)CC3)cc2)s1 [Compound A22, 2-(3-methyl-pyridin-4-yl)-5-[4-(4-methyl-piperazin-1-ylmethyl)-benzoylamino]-thiazole-4-carboxylic acid amide]
- pIC50 [1]: 6.46
- pIC50 [2]: 6.52

Structure (SMILES): CN1CCN(Cc2ccc(C(=O)Nc3sc(-c4ccncc4)nc3C(N)=O)cc2)CC1 [Compound A37, 5-[4-(4-methyl-piperazin-1-ylmethyl)-benzoylamino]-2-pyridin-4-yl-thiazole-4-carboxylic acid amide]
- pIC50 [1]: 6.15
- pIC50 [2]: 6.70

Structure (SMILES): NC(=O)c1nc(-c2ccncc2)sc1NC(=O)c1ccsc1 [Compound A65, 2-pyridin-4-yl-5-[(3-thienylcarbonyl)amino]-1,3-thiazole-4-carboxamide]
- pIC50 [1]: 6.70
- pIC50 [2]: 6.32

Structure (SMILES): CN1CCN(Cc2ccc(C(=O)Nc3sc(-c4ccncc4C(F)(F)F)nc3C(N)=O)cc2)CC1 [Compound A17, 5-[4-(4-methyl-piperazin-1-ylmethyl)-benzoylamino]-2-(3-trifluoromethyl-pyridin-4-yl)-thiazole-4-carboxylic acid amide]
- pIC50 [1]: 5.85
- pIC50 [2]: 6.85

Structure (SMILES): Cn1cccc1C(=O)Nc1sc(-c2ccncc2)nc1C(N)=O [Compound A59, 5-{[(1-methyl-1H-pyrrol-2-yl)carbonyl]amino}-2-pyridin-4-yl-1,3-thiazole-4-carboxamide]
- pIC50 [1]: 6.40
- pIC50 [2]: 5.92
